Experimental findings from patent US12503426B2, “Synthetic derivatives of oleoyl-lysophosphatidylinositol (oleoyl-LPI) and uses thereof” (LIPOVEXA SRL, priority 2017, dated 2025) are described below.

The subject of one assay is NCI-H716 cells. The assay can be described thus: GLP-1 secretion by NCI-H716 cells (Examples 2-8). Type of assay: cell-based, human. The note with it: 2 hours. How it is done:
NCI-H716 cells were maintained in 75 cm^2 tissue culture flasks (Corning) in RPMI 1640 media containing 2.0 mM L-glutamine, 1.5 g/L sodium bicarbonate, 10 mM HEPES buffer, 1.0 mM sodium pyruvate, and 4.5 g/L glucose and supplemented with 10% FBS at a 37° C. and 5% CO2. When plating for experiment, cell adhesion and endocrine differentiation were initiated by growing cells in dishes coated with growth factor reduced Matrigel diluted at the ratio of 1:2 (Becton Dickinson, Bedford, MA) in high-glucose DMEM, 10% FBS, 2 mM glutamine, 100 IU/ml penicillin, and 100 μg/ml streptomycin as described previously by De Bruine, a P., Dinjens, W. N., van der Linden, E. P., Pijls, M. M., Moerkerk, P. T., & Bosman, F. T. (1993) The American Journal of Pathology, Vol 142(3), pp 773-782, the disclosure of which is incorporated herein in its entirety by reference.
Approximately 80,000 Glutag cells were plated in poly-L-lysine-coated 24-well culture plates and grown to about 80% confluence. NCI-H716 cells were seeded on growth factor reduced Matrigel™ (Becton Dickinson, Bedford, MA) in DMEM medium, supplemented with 10% FBS the day before the experiment. For NCI-H716 cells, approximately 25,000 cells were needed for this secretion experiment in order to have good stimulation with lower basal GLP-1 secretion. In brief, Glutag and NCI-H716 cells were washed twice and then incubated for 2 h with FBS-free DMEM containing 1% (M:C) alone (negative control), 10 μM forskolin as positive control (Sigma-Aldrich), or with different concentrations of Oleoyl-LPI. M:C was used as a solvent to prepare stock solutions of fatty acid derivatives and inhibitors. For secretion experiments, medium and cells were collected separately.
In separate studies, GLUTag or NCI-H716 cells were pre-treated for 1 hour with medium alone (1% DMSO, negative control), PD98059 (50 μM; Sigma Chemical Co.), H89 (10 μM; Santa Cruz) followed by treatment with oleoyl-LPI (20 μM), OEA (10 μM), AR231453(1 μM), PMA (10 μM) or forskolin (10 μM, positive control) in the presence of inhibitors, as appropriate, for about 2 h. Medium GLP-1 secretion was calculated as total GLP-1 content of medium normalised for the basal secretion of the control.
In order to investigate the role of different LPI species in enteroendocrine cells, murine (Glutag) and human (NCI-H716) L-cells were stimulated with the following different species of LPI: Arachidonyl-LPI, Stearoyl-LPI, Heptadecenoyl-LPI and oleoyl-LPI, as well as with OEA and LPC. Experiments were performed in duplicate, n=4 and the level of total GLP-1 was measured by ELISA.

The test system of the next assay is pancreatic islets. Briefly: Glucose-stimulated insulin secretion (GSIS) of isolated islets. Type of assay: cell-based, mice. The following applies: 16.7 mM glucose. As for the experimental part: After euthanasia, pancreatic islets were isolated as described in detail elsewhere (Carter, J. D., S. B. Dula, K. L. Corbin, R. P. Wu and C. S. Nunemaker (2009), Biological Procedures Online, Vol 11(1), pp:3-31). Following purification, islets were rested overnight at 37° C. in a humidified atmosphere of 95% air and 5% CO2 in RPMI 1640 medium supplemented with 10% FBS, 100 units/ml penicillin and 0.1 mg/ml streptomycin.
Glucose-stimulated insulin secretion (GSIS) was performed on isolated mouse islets after resting them overnight in supplemented RPMI 1640 medium at 37° C. in a humidified atmosphere of 95% air and 5% CO2. Briefly, islets were hand-picked and placed in groups of five into individual micro centrifuge tubes. Islets were washed twice, then incubated with Krebs buffer (KRB, 115 mM NaCl; 4.7 mM KCl; 1.28 mM CaCl2·2H2O; 1.2 mM KH2PO4; 1.2 mM MgSO4·7H2O; 10 mM NaHCO3; 10 mM HEPES; 0.5% BSA; pH 7.4) supplemented with 1.1 mM glucose for 40 minutes at 37° C. Supernatants were discarded, then islets were incubated with KRB supplemented with 16.7 mM glucose for 20 minutes. Supernatants were collected for insulin determination using Mouse Ultrasensitive Insulin ELISA (Mercodia, Uppsala, Sweden) according to manufacturer instructions and data was reported as picograms of Insulin per islet in 20 minutes (pg/islet/20 min).

For assay [1], the system named is primary culture of mixed colonic preparations. Briefly: GLP-1 secretion by mixed primary colonic culture. The class given is cell-based, mice. From the text:
Mice were euthanized, and 5 cm of colon were used for isolation of epithelial cells following as previously described by Reimann, F., Habib, A. M., Tolhurst, G., Parker, H. E., Rogers, G. J., & Gribble, F. M. (2008), Cell Metabolism, Vol 8(6), pp 532-539, the disclosure of which is incorporated herein by reference in its entirety. Briefly, colon segments were dissected from 10 week-old C57BL/6 male mice. Segments were cut open longitudinally and washed quickly in DMEM (serum-free) to remove luminal contents. Colon was chopped into about 1-2 mm pieces and digested with about 0.5 mg/ml collagenase-P for 15 min. Resulting cell suspensions were filtered through 70 μm nylon cell strainers (BD Falcon, UK), centrifuged at 300 g for 5 min, and pellets re-suspended in DMEM supplemented with 10% FBS. The purified cells were collected and cultured on 24-well Matrigel-coated plates at 37° C. in DMEM (25 mM glucose), 10% FBS, 2 mM L-glutamine, 1% penicillin/streptomycin. On the day of GLP-1 assay, cells were washed twice with PBS, and then treated with LPI or vehicle Methanol: Chloroform, (M:C), v/v for 2 h at 37° C. Supernatants were collected for GLP-1 quantification using the active GLP-1 ELISA kit from Millipore. […]

Substance “oleoyl-lysophosphatidylinositol [oleoyl-LPI]” returned a GLP-1 secretion in the assay with NCI-H716 cells (NCI-H716 cells, normalised as percentage of cells treated with vehicle (control)) of 124±7.4%. Further, the “effect of down-regulation of GPR55 on GLP-1 secretion” value in the assay on NCI-H716 cells (siGPR55 transfected NCI-H716 cells, oleoyl-LPI 20 μM) was “no effect on GLP-1 secretion”. Further, the “GLP-1 secretion in siGPR119-transfected cells” value with NCI-H716 cells (siGPR119 transfected NCI-H716 cells, oleoyl-LPI 20 μM) is reported as “significantly reduced the GLP-1 secretion to the basal level”. In addition, the “insulin secretion response to stimulation” value with pancreatic islets (GPR119−/− islets) was “completely lost the ability to respond”. Moreover, the “enhancement of acute insulin secretion” value in the assay on pancreatic islets (wild type islets, oleoyl-LPI 20 μM, 20 minutes) was “approximately 50%”. The GLP-1 release result in assay [1] (GPR119−/− mice compared to wild type control) is recorded as “unable to induce GLP-1 release”. Moreover, the “GLP-1 levels, from the basal secretion” value in assay [1] (wild type mice, two hours treatment) came out at 131±32%.
